These results are taken from patent US20090156638A1, “Uses of nordihydroguaiaretic acid (NDGA) and derivatives thereof in preventing transmission of sexually transmitted diseases” (priority 2007, published 2009).

In data set [1] the test system is HSV-1. Nature of the data set: Mutation-insensitivity: IC50 against HSV-1 over ten virus passages. The class given is cell-based. An excerpt: In contrast, host factors, unlike viral factors, are under no selective pressure to mutate and are in general structurally invariable. […] Table 1 compares the IC50 of M4N and acyclovir for ten passages.
A further data set relates to SIVmac239. As to conditions: read-out: Inhibitory Concentration (IC50 or EC50), 174 × CEM cells.
The subject of the next data set is Sp1 enhancer sequence. As to conditions: ethidium displacement; G4N concentration causing 50% reduction of DNA-ethidium fluorescence. An excerpt:
(§1) The […] (IE) ICP4 gene of HSV is essential for HSV replication.

In another data set the test system is HIV-1. As to conditions: read-out: Inhibitory Concentration (IC50 or EC50), Cos cells.
Data set [2] deals with HSV-1. As to conditions: topical application for six days in guinea pigs, up to 50 mM; reference (34); cited from earlier work.
The subject of a further data set is HSV-2. Nature of the data set: Mouse vaginal model of HSV-2 infection. As to conditions: for animals infected: 10 mice per group. The format is in vivo, CF-1 mice. The method, then: The efficacies of […] (FIG. 8A) and […] (FIG. 8A) against HSV-2 in a mouse vaginal model system have also been examined. […] At the end of three days, the vaginal lavages were collected from the washings of the vagina regions. The status of the vaginal HSV-2 infection and replication were examined by their cytopathic effects on cultured human foreskin fibroblast cells. Monitoring and scoring were carried out by three persons independently.

In data set [3] the test system is HSV-1. The settings on record: read-out: Inhibitory Concentration (IC50 or EC50).
The test system of data set [4] is HSV-1. As to conditions: for efficacy against HSV-1 cutaneous infection: day 6. The procedure:
The dorsal cutaneous guinea pig model system is a well-established model for HSV-1 infection.
In FIGS. 6A-6D, for topical treatment with M4N sections of shaved and depilated dorsal guinea pig skin were infected equally were infected with HSV-1.
McKrae strain). […] Treatments were administered twice daily and photogragphs were taken at day 6 post-infection. […] Regions 1 and 4 were infected with high levels of HSV-1 (1×10^8 pfu/mL), regions 2 and 5 were infected with moderate levels of HSV-1 (1×10^6 pfu/mL) and regions 3 and 6 were infected with low levels of HSV-1 (1×10^4 pfu/mL).

The subject of another data set is HIV-1RTMF. The settings on record: read-out: Inhibitory Concentration (IC50 or EC50), H9 cells.
For a further data set, the system named is HSV-1^R. As to conditions: 40 μM; explanted mouse trigeminal ganglia.
For data set [5], the system named is acyclovir-resistant strains of HSV-1 (HSV-1^R). As to conditions: read-out: Inhibitory Concentration (IC50 or EC50).
Data set [6] relates to Sp1 transcription factor binding to the major groove of Sp1 site. As to conditions: by competition for binding or altering DNA conformation.
Source text: as §1

Like-named read-outs stand apart in the source and are kept apart here.

As for `Nc1nc2c(ncn2COCCO)c(=O)[nH]1` [Acyclovir, acyclovir, reference compound], the IC50 in the data set with HSV-1 [1] (Human alphaherpesvirus 1, HSV-1 passage 1) is 7.54 µM; with HSV-1 [1] (Human alphaherpesvirus 1, HSV-1 passage 2), 37.8 µM; in the data set with HSV-1 [1] (Human alphaherpesvirus 1, HSV-1 passage 3), 88.8 µM; with HSV-1 [1] (Human alphaherpesvirus 1, HSV-1 passage 4), 138 µM; in the data set on HSV-1 [1] (Human alphaherpesvirus 1, HSV-1 passage 5) it was 111 µM; in the data set with HSV-1 [1] (Human alphaherpesvirus 1, HSV-1 passage 6), 131 µM. The IC50 in the data set on HSV-1 [1] (Human alphaherpesvirus 1, HSV-1 passage 7) came out at 190 µM; with HSV-1 [1] (Human alphaherpesvirus 1, HSV-1 passage 8), 444 µM; in the data set with HSV-1 [1] (Human alphaherpesvirus 1, HSV-1 passage 9) it was 379 µM; with HSV-1 [1] (Human alphaherpesvirus 1, HSV-1 passage 10), 444 µM.

Turning to `C[C@H](Cc1ccc(OC(=O)CN(C)C)c(OC(=O)CN(C)C)c1)[C@@H](C)Cc1ccc(OC(=O)CN(C)C)c(OC(=O)CN(C)C)c1` [G4N, tetra-O—(N,N-dimethyl)glycyl-nordihydroguaiaretic acid], the IC50 in the data set with SIVmac239 amounted to 5 µM; with HIV-1 it was 36 µM; in the data set on HSV-1 [3] (HSV-1 McKrae (Vero from row above)), 4.5 µM; with HSV-1 [3] (Vero cells, HSV-1 KOS), 3.6 µM; in the data set with HIV-1RTMF, 12 µM; in data set [5] (HSV-1^R F59878), 2.1 µM. For the same compound, in data set [5] (HSV-1^R T28387), the IC50 was determined as 4.3 µM. The “apparent equilibrium binding constant (Kapp)” value in the data set on Sp1 enhancer sequence came to 3e+06 M⁻¹. Further, in the data set on HSV-1 [2], the toxicity result is “no evidence of toxicity”. In the data set with HSV-2 (0.1 mM), the average infection score amounted to 0.5. In addition, the infection in the data set on HSV-2 (0.1 mM) is given as about 12.5%. For the same compound, the animals infected in the data set on HSV-2 (0.1 mM, vaginal lavage at three days) is given as 1 out of 10; with HSV-2 (10 mM), “no infections detected”; in the data set on HSV-2 (100 mM) it was “no infections detected”. Moreover, the “efficacy against HSV-1 cutaneous infection” value in the data set with HSV-1 [4] (5 mM topically twice daily, 1×10^8 pfu/mL McKrae) is recorded as “semi-effective”; in the data set on HSV-1 [4] (10 mM topically twice daily, 1×10^8 pfu/mL McKrae), “more effective”; with HSV-1 [4] (150 mM topically twice a day, 1×10^4 to 1×10^8 pfu/mL), “extremely effective”. Further, in the data set on HSV-1 [4] (topical application, guinea pig), the “inhibition of HSV-1 induced cutaneous lesion formation and viral shedding” value is “effectively inhibited HSV-1 induced cutaneous lesion formation and viral shedding”. In the data set with HSV-1^R, the “decrease in HSV reactivation” value is reported as 40 μM had 67%.

For the compound `COc1cc(CC(C)C(C)Cc2ccc(O)c(O)c2)ccc1O` (stereo not shown) [Mal.4, 3′-O-methyl nordihydroguaiaretic acid], in the data set on HIV-1, the IC50 is 25 µM.

Regarding `CC(Cc1ccc(OCCN2CCCCC2)c(OCCN2CCCCC2)c1)C(C)Cc1ccc(OCCN2CCCCC2)c(OCCN2CCCCC2)c1` (stereo not shown) [P4N, tetra-O—(N-ethylpiperidinyl)-nordihydroguaiaretic acid], in data set [6], the “disruption of Sp1 transcription factor binding” value was “disrupt Sp1 transcription factor binding”. Besides, in the data set on HSV-2 (10 mM), the “average scale of infection” value came out at 0.19 and the animals infected is given as 2 of 10. Further, the “efficacy against vaginal HSV-2 infection” value with HSV-2 (in PBS) was “quite effective”.
